Data as given in patent US20250108036A1, “COMPOSITIONS FOR REMOVING SENESCENT CELLS AND USES THEREOF” (LIFECEUTIX CO., LTD., priority 2021, published 2025).
Read-outs that look alike come from different tables or passages of the source.

Experiments:
Assay type in all cases: cell-based, human
[1] = system: foreskin cells in which senescence was induced by doxorubicin; assay: CellTiter-Glo cell viability of doxorubicin-induced senescent foreskin cells (Examples 1-2, 10, 11, 13; Tables 4, 63, 65); settings: Homo sapiens, 72 h, read-out: Survival (%); for viability at 10 µM: 10 μM test compound; for viability at 30 µM: 30 μM test compound; for viability at […]: […] test compound; for viability at 90 µM: 90 μM test compound
Procedure: After 3 days, cell viability was measured using CellTiter-Glo Luminescent Cell Viability Assay (Promega) or light microscopy.

HMGN1 [2] = assay: HMGN1 ELISA in culture medium of foreskin cells (Examples 10, 11; Tables 62, 63, 64); settings: Homo sapiens; for activity at 30 µM: read-out: HMGN1
HMGN1 [3] = assay: HMGN1 ELISA in culture medium of A549 cancer cells (Example 12, Table 66); settings: Homo sapiens; for activity at 90 µM: test compound 90 μM
A549 = assay: CellTiter-Glo cell viability of senescent A549 cancer cells (Example 12, Table 67); settings: Homo sapiens; for viability at 10 µM: 10 μM test compound; for viability at 30 µM: 30 μM test compound; for viability at 90 µM: 90 μM test compound; for viability at 270 µM: 270 μM test compound
[4] = 1.1 μM test compound, doxorubicin-induced senescent foreskin cells, CellTiter-Glo, 0 μM = 100
[5] = doxorubicin-induced senescent foreskin cells, CellTiter-Glo, 0 μM = 100
[6] = 30 μM test compound, doxorubicin-treated foreskin cells, DMSO = 100
[7] = A549, doxorubicin-induced senescent A549 cells, ELISA, DMSO = 100, read-out: HMGN1 (amount of HMGN1 secreted in the cell culture)
[8] = A549, doxorubicin-induced senescent A549 cancer cells, 1.1 μM test compound, CellTiter-Glo, read-out: Survival (%)
[9] = A549, doxorubicin-induced senescent A549 cancer cells, CellTiter-Glo, read-out: Survival (%)
[10] = A549, doxorubicin-induced senescent A549 cells, test compound 30 μM, ELISA, DMSO = 100, read-out: HMGN1 (amount of HMGN1 secreted in the cell culture)

SMILES	viability at 1.1 µM [1, 4] [%]	viability at 10 µM [1, 5] [%]	viability at 30 µM [1, 5] [%]	viability at […] [1, 5] [%]	activity at 30 µM (HMGN1 [2]; [6]) [%]	activity at 90 µM (HMGN1 [3]; [7]) [%]	viability at 1.1 µM (A549; [8]) [%]	viability at 10 µM (A549; [9]) [%]	viability at 30 µM (A549; [9]) [%]	viability at 90 µM (A549; [9]) [%]	activity at 30 µM (HMGN1 [3]; [10]) [%]	also measured
C=C(CN(C)C)C(=O)c1ccc(C)cc1C [LX-923]	97.7	75.7	19.5	94.5	271	219	96.7	89.4	81.7	15.7	–	–
CC(C)Oc1ccc(-c2ccccc2)cc1-n1c(CN2CCN(C(=O)COc3ccc(Cl)cc3)CC2)nc2ccccc2c1=O [LX-1001]	89.9	57.7	34.5	81.8	231	183	95.5	92.2	71.8	25.3	–	–
Cc1ccc(-c2c(C#N)c(N)n3c(nc4ccccc43)c2C#N)cc1 [LX-1101]	108	47.1	22.8	112	268	183	95.4	92.7	88.3	23.7	–	–
NCC(=O)CCC(=O)O [LX-1103, 5-Aminolevulinic acid, reference compound]	104	99.6	95.2	98.9	–	–	96.6	95.1	91	91.1	–	viability at 90 µM [1, 5]: 88%; viability at 270 µM ([1]; 270 μM test compound, doxorubicin-induced senescent foreskin cells, CellTiter-Glo, 0 μM = 100): 61.3%; activity at 270 µM (HMGN1 [2]; 270 μM test compound, doxorubicin-treated foreskin cells, DMSO = 100): 172%; activity at 270 µM (HMGN1 [3]; A549, doxorubicin-induced senescent A549 cells, test compound 270 μM, ELISA, DMSO = 100, read-out: HMGN1 (amount of HMGN1 secreted in the cell culture)): 158%; viability at 270 µM (A549; [9]): 63.7%
CCCCCCCCCCCCCCCC[P+](c1ccccc1)(c1ccccc1)c1ccccc1 [LX-1201, Hexadecyltriphenylphosphonium]	–	–	–	–	–	–	–	–	–	–	–	viability at 1.1 µM [1]: 23%; activity at 30 µM (HMGN1 [2]): 311%; activity at 30 µM (HMGN1 [3]; A549, read-out: HMGN1 (amount of HMGN1 secreted in the cell culture)): 289%; viability at 1.1 µM (A549; A549, read-out: Survival (%)): 47.3%
COC1=C(OC)C(=O)C(CCCCCCCCCC[P+](c2ccccc2)(c2ccccc2)c2ccccc2)=C(C)C1=O [LX-1203, Mitoquinone]	–	1.5	–	38.2	311	–	88.7	15.5	–	–	298	–
Clc1ccc(C(c2ccccc2Cl)C(Cl)Cl)cc1 (centres unmarked) [LX-1301, Mitotane, reference compound]	104	83	0.4	106	281	–	106	101	17.5	–	318	–
O=C(O)c1cc(/N=N/c2ccc(S(=O)(=O)Nc3ccccn3)cc2)ccc1O [LX-1302, Sulfasalazine, reference compound]	102	92.2	79.6	105	–	147	95.5	102	102	69.6	–	viability at 90 µM [1, 5]: 52.4%; activity at 90 µM (HMGN1 [2]; 90 μM test compound, doxorubicin-treated foreskin cells, DMSO = 100): 171%; viability at 270 µM (A549; [9]): 19.8%
C[C@H](CN1CCCC1)C(=O)c1ccc(C(F)(F)F)cc1 [LX-1402, Lanperisone, reference compound]	101	15.6	2.1	97.6	304	–	97.6	81.1	29.5	–	248	–
Cc1ccc(C(=O)C(C)CN2CCCCC2)cc1 (centres unmarked) [LX-1403, Tolperisone, reference compound]	102	55.4	18.3	97.6	282	–	97.6	70	8.4	–	306	–
